Among the data in BindingDB's records for doi:10.1016/j.ejmech.2018.10.063 (Saint Petersburg State University, 2019) are IC50 values, retold here.

This experiment in a line: Inhibition of Influenza A virus (A/Puerto Rico/8/34(H1N1)) PA endonuclease infected in MDCK cells assessed as reduction in virus titer treated with cells for 1 hr prior to viral infection for 1 hr followed by compound washout and subsequent compound addition measured after 48 hrs by hemagglutination test.
`c1cnc(N2CCN=C2c2ccc(C3=NCCN3c3cnccn3)cc2)cn1`: the half-maximal inhibitory concentration (IC50) was > 809 µM.
`c1ccc(N2CCN=C2c2ccc(C3=NCCN3c3ccccc3)cc2)cc1`: the IC50 turned out to be 77 µM.
The value for `Clc1ccc(N2CCN=C2c2ccc(C3=NCCN3c3ccc(Cl)cc3)cc2)cc1` was 5 µM; that for `c1ccc(N2CCN=C2c2ccc(C3=NCCN3)cc2)cc1` was 30 µM; that for `COc1ccc(N2CCN=C2c2ccc(C3=NCCN3)cc2)cc1` was 44 µM.
As to `Fc1ccc(N2CCN=C2c2ccc(C3=NCCN3c3ccc(F)cc3)cc2)cc1`, the IC50 amounted to 12 µM.
Consider `Fc1ccc(N2CCN=C2c2ccc(C3=NCCN3)cc2)cc1`, for which the IC50 was 65 µM.
In the case of `C[C@@H](N)C12CC3CC(CC(C3)C1)C2` [(alpha-methyl-1-adamantyl)methylamine], the IC50 stood at 11 µM.
The value for `c1cncc(N2CCN=C2c2ccc(C3=NCCN3c3cccnc3)cc2)c1` was 68 µM.
Consider `FC(F)(F)c1ccc(N2CCN=C2c2ccc(C3=NCCN3c3ccc(C(F)(F)F)cn3)cc2)nc1`, for which the half-inhibitory concentration (IC50) was 103 µM.
The value for `COc1ccc(N2CCN=C2c2ccc(C3=NCCN3c3ccc(OC)cc3)cc2)cc1` was 16 µM.
`c1ccc(N2CCN=C2c2ccc(C3=NCCN3c3ccccn3)cc2)nc1`: the IC50 stood at 35 µM.

Usually IC50 stands for the concentration that inhibits the measured activity by half.
